No end group written: not given here.

The target in one data set is T1, native TAL6 (Homo sapiens, UniProt P30408).
T1 construct: expressed in transfected cells; host or cells: EL-4 (mouse lymphoma) cells expressing TAL6 (EL-4/L6, EL4-L6)
T1 sequence (P30408 1-202): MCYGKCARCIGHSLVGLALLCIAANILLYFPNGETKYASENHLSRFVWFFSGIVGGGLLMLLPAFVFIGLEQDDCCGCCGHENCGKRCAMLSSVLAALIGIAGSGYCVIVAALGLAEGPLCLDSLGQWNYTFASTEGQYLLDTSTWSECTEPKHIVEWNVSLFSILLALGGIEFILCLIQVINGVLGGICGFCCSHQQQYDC
Briefly: Anti-TAL6 antibody in sera of immunized mice, cell-based ELISA. In kind it is in vivo, C57BL/6 mice. Conditions: formulated with IFA/Th, sera 1:500, EL4-L6 O.D. minus EL4 O.D. The method, then:
(§1) FIG. 2 is a set of graphs showing that immunization of WT mice with the EP1 peptide induced anti-tumor immunity. EP1 or positive control MCF-7/TAL6 cells formulated with incomplete Freund's adjuvant (IFA) were administered to mice twice at a two-week interval. (A) Anti-TAL6 antibody titers were determined by using cell-based ELISA. Antigen-specific antibody was calculated as: EL4-L6 (O.D.)−EL4 (O.D.). (B) TAL6-specific ADCC was determined in a Cr^51 release assay. The lysis percentage was calculated as immunized serum (lysis %)−naïve serum (lysis %). ***P<0.001.
To test whether the EP1 peptide could raise antibodies that bind native TAL6, the EP1 peptide or MCF-7/L6 cells (as positive control) were formulated with IFA/Th and administered to C57BL/6 mice. Sera from immunized mice were collected and the anti-TAL6 antibody titers were analyzed using cell-based ELISA. […] See FIG. 2, A. Whether EP1 immunization could induce antibody-dependent cellular cytotoxicity (ADCC) was also investigated. Sera (1:100) from mice immunized with either EP1 or MCF-7/L6 cells could kill TAL6-expressed EL4 (EL4/L6) cells but not EL4 parental cells (61.82%±6.12% v.s. 0.36%±0.96% and 65.54%±1.77% v.s. 11.41%±3.094%). […]
(§2) For antibody epitope mapping, L6, 9C7 and 1F4 Mabs were assayed by ELISA. […] Absorbance was measured at 450 nm.

For data set [1], the system named is TAL6-expressed EL4 (EL4/L6) cells. Briefly: ADCC Cr51 release assay with sera of immunized mice, EL4/L6 target cells. The class given is cell-based. Conditions: C57BL/6 mice, IFA; sera 1:100; immunized serum lysis % minus naïve serum lysis %. The method, then:
as §1
FIG. 6 is a set of graphs showing that immunization with PELC/CpG/Th-A2-5-EP1 induced high levels of humoral and cellular immunity in HLA-A2 mice. The Th-A2-5-EP1 peptide was formulated with different adjuvants. […] (A) IFN-γ-secreting cells were determined using IFN-γ ELISpot assay. Results are expressed as mean SD. ***P<0.001. […] (D) TAL6-specific ADCC was determined by Cr^51 release assay. The lysis percentage was calculated as: immunized serum (lysis %)—naïve serum (lysis %) ***P<0.001.
(§3) To test whether the EP1 peptide could raise antibodies that bind native TAL6, the EP1 peptide or MCF-7/L6 cells (as positive control) were formulated with IFA/Th and administered to C57BL/6 mice. Sera from immunized mice were collected and the anti-TAL6 antibody titers were analyzed using cell-based ELISA. […]

The subject of the next data set is EL4 parental cells. The data set is described as follows: ADCC Cr51 release assay with sera of immunized mice, EL4 parental target cells. Conditions: C57BL/6 mice, IFA; sera 1:100; immunized serum lysis % minus naïve serum lysis %. The class given is cell-based. The protocol: as §1, §3
(§4) Mice spleen cells were used as effector cells for the ADCC assay. […] After 6 hr, supernatants were harvested to measure the radioactivity using a gamma counter. Spontaneous release was measured in wells containing target cells alone. […] Percent cytotoxicity was determined according to the formula: percent lysis=100×(experimental ^51Cr release−spontaneous ^51Cr release)/(maximal ^51Cr release−spontaneous ^51Cr release).

Another data set relates to B16-L6 cells. The data set is described as follows: Immunization then subcutaneous B16-L6 tumor challenge in WT mice. In kind it is in vivo, C57BL/6 mice.
For data set [2], the system named is anti-TAL6 monoclonal antibody L6. Briefly: ELISA epitope mapping: detection of coated TAL6 peptides by L6 mAb. The class given is binding. The conditions noted are these: plate coated with peptide 10 μg/ml; antibody 1:500. The method, then:
FIG. 1 includes (A) a scheme showing the overlapping peptides that cover the extracellular domains of TAL6: EL1 (residues 31 to 46 of SEQ ID NO: 1); EL2 (residues 114 to 164 of SEQ ID NO: 1); EP1 (SEQ ID NO: 4); EP2 (SEQ ID NO: 17); EP3 (SEQ ID NO: 18); and EP4 (SEQ ID NO: 19); and (B) a graph showing binding of the peptides to anti-TAL6 antibodies. A 96-well plate was coated with the indicated peptides (10 μg/ml) in each well. Three anti-TAL6 antibodies (1:500) were used to detect these peptides. CP: Control peptide.
FIG. 10 is a graph showing identification of residues in EP1 that are important for antibody binding using alanine scanning. The amino acid residues in EPI were individually replaced with alanine to generate EP1-1 to EP1-20 peptides. Monoclonal antibody L6 was used to detect these peptides. EP1 is a positive control and EP-3 is a negative control.
Three purified anti-TAL6 monoclonal antibodies (1F4, 9C7, L6) were used to detect the surface expression TAL6 on EL-4 (EL-4/L6) cells. See Chang et al., Int J Cancer, 116 (2005) 243-252. […] To further map the antibody-binding epitopes, five peptides (EL1 and EP1-4) that cover the EL1 and EL2 extracellular loops were used to determine the linear B cell epitopes using ELISA. […]
as §2

Data set [3] relates to lung cancer cell line H2981. Briefly: ADCC Cr51 release assay with sera of immunized mice, H2981 target cells. In kind it is cell-based, human. Conditions: formulated with PELC/CpG; sera collected at 6 weeks. The protocol:
(§5) FIG. 9 is a set of graphs showing that peptide formulated with different adjuvants induced antibody-dependent cellular cytotoxicity (ADCC) against human cancer cells. Mice were immunized with peptide Th-EP1-A2-5 in various adjuvants twice at a two-week interval. Sera were collected at 6 weeks for ADCC assay. (A) Lung cancer cell line H2981 was used as a target. (B) Human breast cancer cell lines MCF7 and MCF7-TAL6 were used as targets. TAL6-specific ADCC was determined by Cr^51 release assay. The lysis percentage was calculated as: immunized serum (lysis %)−naïve serum (lysis %) ***P<0.001.
(§6) Mice were immunized with Th-A2-5-EP1 formulated with different adjuvants twice at a two-week interval. Sera was collected at 6 weeks for ADCC assay. […] TAL6-specific ADCC was determined by Cr51 release assay. The lysis percentage was calculated by subtracting the […].
as §4

Data set [4] concerns breast cancer cell lines MCF7 and MCF7-TAL6. The data set is described as follows: ADCC Cr51 release assay with sera of immunized mice, MCF7 and MCF7-TAL6 target cells. In kind it is cell-based, human. Conditions: formulated with PELC/CpG; sera collected at 6 weeks. The protocol:
as §5, §6, §4

Experimental for B16-L6 cells: EP1 or positive control MCF-7/TAL6 cells formulated with incomplete Freund's adjuvant (IFA) were administered to mice twice at a two-week interval. (A) At 7 days after the final immunization, B16-L6 (2×10^4) cells were inoculated subcutaneously. Tumor growth was monitored 2-3 times per week. (B) The survival rate of the mice was determined.
Mice were immunized with 50 mg of EP1 formulated with the indicated adjuvants twice at a 14-day interval. (A) At 7 days after the second immunization, 2×10^4 of B16/TAL6 cells were injected subcutaneously. Tumor growth was monitored 2-3 times per week. Results obtained are expressed as mean SD (n=6). (B) Mouse survival rate was monitored. Results are expressed as means ±SD (*P<0.05.**P<0.01).
See FIG. 2, B. To investigate if the EP1 peptide could induce anti-tumor activity, mice were immunized with EP1 peptide and then challenged with B16-L6 cells (2×10^4/mouse) at 7 days after the final immunization.
The EP1 peptide was formulated with different adjuvants. Mice were immunized with 50 mg of the formulations twice at a 14-day interval. At 7 days after the second immunization, 2×10^4 B16/TAL6 cells were injected subcutaneously to the mice. Tumor growth was monitored 2-3 times per week.
HLA-A2 Tg mice were injected subcutaneously (s.c.) twice at a 2-week interval with peptide formulated in IFA, alum, DOTAP liposome, PELC nanoparticles, or TLR9 agonist CpG. Seven days after the second immunization, the B16-L6-A2 or B16-L6 cells (2×10^4) were inoculated s.c. on the opposite site of the peptide injection. Tumor sizes were measure 2-3 times per week. Tumor volume was calculated using the formula: tumor volume=length×width×width/2.

On to GLAEGPLCLDSLGQWNYTFA [EP1], for which the “anti-TAL6 antibody amount in sera versus vehicle (PBS)” value in the data set with native TAL6 is given as “significantly higher amount of antibody”. The “ADCC lysis of EL4/L6 cells” value in data set [1] is listed as 61.82%±6.12%. Moreover, in the data set on EL4 parental cells, the “ADCC lysis of EL4 parental cells” value was 0.36%±0.96%. The tumor growth result with B16-L6 cells (formulated with IFA, immunized twice, B16-L6 2×10^4/mouse s.c. 7 days after final immunization) was “significantly inhibited tumor growth”. For the same sequence, the “anti-tumor effects (tumor growth, survival)” value with B16-L6 cells (formulated with PELC/CpG, 50 mg twice at 14-day interval, 2×10^4 B16/TAL6 cells s.c.) is “induced anti-tumor effects”. Besides, in the data set on B16-L6 cells (formulated with different adjuvants, 50 mg twice at 14-day interval, 2×10^4 B16/TAL6 cells s.c.), the “anti-tumor effect (tumor growth)” value is “exhibited an anti-tumor effect”. Moreover, in data set [2], the “detection of the peptide by L6 mAb (ELISA)” value is reported as “could be detected by L6 mAb”.
In the case of “AKFVAAWTLKAAAAAALLMLLPAFVAAAGLAEGPLCLDSLGQWNYTFA [Th-A2-5-EP1]”, the “ADCC cytotoxicity, rank among adjuvant formulations” value in data set [3] and in data set [4] was “strongest cytotoxicity” each time.

The values above are taken from patent US10995126B2, “Immunogenic peptide containing a b cell epitope of tumor associated antigen L6” (National Health Research Institutes, priority 2016, dated 2021).
